In ChEMBL document CHEMBL1177796, “Efficient synthesis of galactosylceramide analogues for iNKT cell stimulation” (Bioorg Med Chem Lett, 2010) one finds Activity data, which are given here for two compounds.

The structures appear in SMILES notation. Active and inactive are the calls of the source. No cut-off for these calls is given here.

This assay deals with iNKT. Kind of assay: Stimulation of human iNKT cell proliferation. The assay is classed as functional, cell-based.

For `CCCCCCCCCCCCCCCCCCCCCCCCCC(=O)N[C@@H](/C=N/O[C@@H]1O[C@H](CO)[C@H](O)[C@H](O)[C@H]1O)[C@H](O)[C@H](O)CCCCCCCCCCCCCC`, the result was Active.
As to `CCCCCCCCCCCCCCCCCCCCCCCCCC(=O)N[C@@H](/C=N/O[C@H]1O[C@H](CO)[C@H](O)[C@H](O)[C@H]1O)[C@H](O)[C@H](O)CCCCCCCCCCCCCC`, the result was Active.
